Assay results reported in ChEMBL document CHEMBL5126588, “Discovery of non-substrate, environmentally sensitive turn-on fluorescent probes for imaging HDAC8 in tumor cells and tissue slices” (Bioorg Med Chem, 2022).
Active and inactive are the calls of the source. No cut-off for these calls is given here.

What was measured:
Histone deacetylase 8 = molecular target: T1, Histone deacetylase 8 (Homo sapiens, UniProt Q9BY41); experiment: Binding affinity to HDAC8 (unknown origin) by biolayer interferometry assay
T1 sequence (Q9BY41 whole entry): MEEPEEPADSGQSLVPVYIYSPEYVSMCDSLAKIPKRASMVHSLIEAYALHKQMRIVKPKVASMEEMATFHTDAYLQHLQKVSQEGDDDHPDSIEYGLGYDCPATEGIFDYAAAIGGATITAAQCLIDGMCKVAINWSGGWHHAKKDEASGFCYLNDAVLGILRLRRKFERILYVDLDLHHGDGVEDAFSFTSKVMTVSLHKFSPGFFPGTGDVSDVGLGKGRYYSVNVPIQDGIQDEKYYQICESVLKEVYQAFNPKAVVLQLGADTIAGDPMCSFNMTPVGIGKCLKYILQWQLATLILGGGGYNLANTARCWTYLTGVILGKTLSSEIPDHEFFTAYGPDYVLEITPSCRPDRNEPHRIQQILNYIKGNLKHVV

Histone deacetylase 1 = Histone deacetylase 1 (Homo sapiens, UniProt Q13547); experiment: Binding affinity to HDAC1 (unknown origin) by biolayer interferometry assay
Histone deacetylase 1, sequence (Q13547 whole entry): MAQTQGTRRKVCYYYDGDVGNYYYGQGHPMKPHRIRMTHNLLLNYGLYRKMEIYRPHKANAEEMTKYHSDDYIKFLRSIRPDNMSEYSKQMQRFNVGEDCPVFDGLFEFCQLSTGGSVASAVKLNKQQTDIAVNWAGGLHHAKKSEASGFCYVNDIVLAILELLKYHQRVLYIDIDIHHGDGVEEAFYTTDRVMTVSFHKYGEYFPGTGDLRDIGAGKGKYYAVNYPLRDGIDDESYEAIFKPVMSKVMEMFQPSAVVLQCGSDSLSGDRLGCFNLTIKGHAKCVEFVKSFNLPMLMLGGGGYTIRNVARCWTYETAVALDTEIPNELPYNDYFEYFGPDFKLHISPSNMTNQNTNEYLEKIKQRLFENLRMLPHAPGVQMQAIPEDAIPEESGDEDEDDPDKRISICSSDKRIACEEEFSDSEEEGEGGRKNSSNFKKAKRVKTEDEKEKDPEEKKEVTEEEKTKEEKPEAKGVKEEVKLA

[1] = molecular target: T2, Protein deacetylase HDAC6 (Homo sapiens, UniProt Q9UBN7); experiment: Binding affinity to HDAC6 (unknown origin) by biolayer interferometry assay
T2 sequence (Q9UBN7 whole entry): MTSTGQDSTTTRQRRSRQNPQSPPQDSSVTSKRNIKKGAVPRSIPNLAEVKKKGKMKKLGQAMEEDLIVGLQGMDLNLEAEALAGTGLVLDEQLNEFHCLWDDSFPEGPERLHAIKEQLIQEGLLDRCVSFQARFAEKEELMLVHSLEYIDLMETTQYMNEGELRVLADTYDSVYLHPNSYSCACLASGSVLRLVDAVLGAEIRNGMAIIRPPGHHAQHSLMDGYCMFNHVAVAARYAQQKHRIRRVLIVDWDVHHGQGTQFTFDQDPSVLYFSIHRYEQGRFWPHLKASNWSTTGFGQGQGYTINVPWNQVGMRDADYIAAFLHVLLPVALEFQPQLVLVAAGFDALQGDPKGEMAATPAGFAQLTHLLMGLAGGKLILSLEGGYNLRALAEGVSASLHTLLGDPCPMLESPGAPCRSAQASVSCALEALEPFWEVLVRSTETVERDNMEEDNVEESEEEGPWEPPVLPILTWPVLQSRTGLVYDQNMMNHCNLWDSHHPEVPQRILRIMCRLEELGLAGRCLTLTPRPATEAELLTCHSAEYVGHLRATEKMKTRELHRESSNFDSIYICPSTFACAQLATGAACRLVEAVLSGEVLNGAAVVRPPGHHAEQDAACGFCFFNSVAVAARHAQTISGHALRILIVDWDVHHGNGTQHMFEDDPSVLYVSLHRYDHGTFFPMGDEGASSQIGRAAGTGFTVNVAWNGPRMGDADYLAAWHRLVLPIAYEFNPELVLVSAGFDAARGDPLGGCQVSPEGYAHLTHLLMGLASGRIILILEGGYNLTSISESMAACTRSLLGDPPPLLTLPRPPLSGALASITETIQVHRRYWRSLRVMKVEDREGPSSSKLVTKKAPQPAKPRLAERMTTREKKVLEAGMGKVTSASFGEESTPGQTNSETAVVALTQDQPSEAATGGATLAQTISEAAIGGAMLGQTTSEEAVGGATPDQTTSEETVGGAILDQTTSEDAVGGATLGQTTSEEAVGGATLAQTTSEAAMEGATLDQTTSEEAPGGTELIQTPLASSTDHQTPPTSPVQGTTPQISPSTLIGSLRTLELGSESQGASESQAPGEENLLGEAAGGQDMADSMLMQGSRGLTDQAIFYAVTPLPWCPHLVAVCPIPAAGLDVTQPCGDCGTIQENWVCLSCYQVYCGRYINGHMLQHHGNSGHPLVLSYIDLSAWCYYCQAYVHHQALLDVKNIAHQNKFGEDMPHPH

MDA-MB-231 [2] = experiment: Antiproliferative activity against human MDA-MB-231 cells by MTT assay; assay type: functional, cell-based
SH-SY5Y [3] = experiment: Antiproliferative activity against human SH-SY5Y cells by MTT assay; assay type: functional, cell-based
MDA-MB-231 [4] = experiment: Antiproliferative activity against human MDA-MB-231 cells within 20 uM by MTT assay; assay type: toxicity, cell-based; settings: mda-mb-231, 20 µM
SH-SY5Y [5] = experiment: Antiproliferative activity against human SH-SY5Y cells within 20 uM by MTT assay; assay type: toxicity, cell-based
[6] = molecular target: T3, Histone deacetylase 8 (Homo sapiens) (UniProt Q9BY41); experiment: Binding affinity to HDAC8 in human SH-SY5Y cells assessed as increase in fluorescence intensity at 10 uM after 30 mins by confocal fluorescence microscopic analysis; assay type: cell-based
T3 sequence (whole entry): T1 sequence (Q9BY41 whole entry)

[7] = molecular target: T3, Histone deacetylase 8 (Homo sapiens); experiment: Binding affinity to HDAC8 in human SH-SY5Y cells assessed as increase in fluorescence intensity at 5 to 10 uM incubated for 30 mins by flow cytometry analysis; assay type: cell-based; settings: dose 5-10 µM
[8] = molecular target: T3, Histone deacetylase 8 (Homo sapiens); experiment: Binding affinity to HDAC8 in human SH-SY5Y cells xenografted with BALB/c mouse assessed as increase in fluorescence intensity in tumor tissue at 20 uM after 30 mins by fluorescence imaging analysis

SMILES	Kd (Histone deacetylase 8)	Kd (Histone deacetylase 1)	Kd [1]	IC50 (MDA-MB-231 [2])	IC50 (SH-SY5Y [3])	Activity (MDA-MB-231 [4])	Activity (SH-SY5Y [5])	Activity [6]	Activity [7]	Activity [8]
COc1ccc(Cn2ccc3ccc(C(=O)NO)cc32)cc1C(=O)NCCCNc1ccc(S(=O)(=O)N(C)C)c2nonc12	3.57 µM	20.6 µM	20.1 µM	18 µM	8.56 µM					
COc1ccc(Cn2ccc3ccc(C(=O)NO)cc32)cc1C(=O)NCCNc1ccc(S(=O)(=O)N(C)C)c2nonc12	5.37 µM	16.2 µM	29.4 µM	16.1 µM	9.93 µM					
COc1ccc(Cn2ccc3ccc(C(=O)NO)cc32)cc1C(=O)NCCCCNc1ccc(S(=O)(=O)N(C)C)c2nonc12	8.89 µM	79.4 µM	137 µM	33 µM	8.48 µM	Non-Toxic	Non-Toxic	Active	Active	Active
COc1ccc(Cn2ccc3ccc(C(=O)NO)cc32)cc1				16.1 µM	2.38 µM					
